Reference: US6855872B2 (priority 1997, dated 2005)

Assays:
[1] = tested on: protoplasts from wild-type tobacco plants; type: cell-based, Nicotiana tabacum
[2] = tested on: protoplasts from transgenic plants with the rice Rpl3 gene (C3 lines); type: cell-based, Nicotiana tabacum
[3] = tested on: protoplasts of the genotype Rpl3:c258 (C4 lines); type: cell-based, Nicotiana tabacum
[4] = tested on: wild type non-transformed N. debneyi cell suspension (N.d.wt); type: cell-based
[5] = tested on: cell suspensions of pCARPL3 plants (N.d.pCARPL3); type: cell-based, N. debneyi
[6] = tested on: cells of transgenic line expressing the rice Rpl3c:258 (N.dpCARPLC4); type: cell-based, N. debneyi
[7] = tested on: leaf explants of wild-type plants; type: cell-based
[8] = tested on: leaf explants of pCAPRL3 plants; type: cell-based
[9] = tested on: leaf explants from pCARPLC4 plants; type: cell-based
[10] = tested on: maize embryogenic cultures (A188xB73) transformed with pActRPL3; type: cell-based
[11] = tested on: maize embryogenic cultures (A188xB73) transformed with pActRPLC4; type: cell-based
[12] = tested on: wheat anther-derived callus tissue; details: cited from earlier work
[13] = tested on: mature maize embryos; details: cited from earlier work

## CC1=C[C@H]2O[C@@H]3[C@H](O)C[C@](C)([C@@]2(CO)[C@H](O)C1=O)[C@]31CO1 [DON, deoxynivalenol]
[1]
  susceptibility of wild-type plants (protoplasts) to DON: susceptible
[2]
  micro colony formation from protoplasts: did not often develop into calli
[3]
  micro colony formation from protoplasts: capable of transfer to regeneration medium
  viability of protoplasts: not significantly affected
[4]
  weight gain of cells after 20 days in culture: inhibited
[5]
  packed cell volume and fresh weight gain of cell suspensions: sufficient to inhibit
  weight gain of cells after 20 days in culture: inhibited
[6]
  impact on packed cell volume or cell fresh weight gain: less serious impact
  weight gain of cells after 20 days in culture: not inhibited as much
[7]
  formation of callus and shoots on leaf explants: inhibiting the formation of callus and shoots
[8]
  formation of callus and shoots on leaf explants: inhibiting the formation of callus and shoots
[9]
  shoot regeneration on leaf explants: capable of shoot regeneration
[10]
  callus growth, % of the control: 15%
[11]
  DON required to reduce growth to 15% of control values: 50 µg/mL
  callus growth, % of the control: 63%
  increase in tolerance to DON by the RPLC4 callus: 10 fold
[12]
  growth of wheat anther-derived callus tissue: reduces growth
[13]
  DON concentration sufficient to significantly inhibit growth: 10 µg/mL
